In US7033789B1, “DNA molecules encoding L-glutamate-gated chloride channels from Schistocerca americana” (Merck & Co., Inc., priority 1999, dated 2006):

Key:
[1] = system: SaGluCl1 (short form “SC”) glutamate-gated chloride channel; assay: Two microelectrode voltage clamp of Xenopus oocytes expressing SaGluCl1; assay type: cell-based, Schistocerca americana; conditions: for current elicited on application of the compound: Xenopus oocyte, SaGluCl1 short form SC, membrane potential held at 0 mV (FIG. 3); for activation of the channel (chloride current): short form of SaGluCl1 in Xenopus laevis oocytes
Source text: The measurement is made with the two microelectrode voltage clamp technique and the membrane potential was held at 0 mV. Two current recordings are superimposed. The bars at top show the duration of application of glutamate and ivermectin phosphate.
Full length cDNA clones corresponding to the selected RT-PCR sequences were used as template for synthesis of in vitro transcribed RNA (Ambion Inc.). The full-length cDNA encoding SaGluCl1 in a Bluescript plasmid is linearized and capped cRNA transcripts are synthesized using appropriate oligonucleotide primers and the mMESSAGE mMACHINE in vitro RNA transcription kit from Ambion. Xenopus laevis oocytes were prepared and injected using standard methods as described (Arena et al., 1991, Mol. Pharmacol. 40: 368–374; Arena et al, 1992, Mol. Brain Res. 15: 339–348). Adult female Xenopus laevis were anesthetized with 0.17% tricaine methanesulfonate and the ovaries were surgically removed and placed in a dish consisting of (mM): NaCl 82.5, KCl 2, MgCl2 1, CaCl2 1.8, HEPES 5, adjusted to pH 7.5 with NaOH(OR-2). Ovarian lobes were broken open, rinsed several times, and gently shaken in OR-2 containing 0.2% collagenase (Sigma, Type 1A) for 2–5 hours. When approximately 50% of the follicular layers were removed, Stage V and VI oocytes were selected and placed in media consisting of (mM): NaCl 86, KCl 2, MgCl2 1, CaCl2 1.8, HEPES 5, Na pyruvate 2.5, theophylline 0.5, gentamicin 0.1 adjusted to pH 7.5 with NaOH (ND-96) for 24–48 hours before injection. For most experiments, oocytes were injected with 10 ng of cRNA in 50 nl of RNase free water. Control oocytes were injected with 50 nl of water. Oocytes were incubated for 1–5 days in ND-96 supplemented with […] gentamycin, 2.5 mM Na pyruvate and 0.5 mM theophylline before recording. Incubations and collagenase digestion were carried out at 18° C.
Voltage-clamp studies were conducted with the two microelectrode voltage clamp technique using a Dagan CA1 amplifier (Dagan Instruments, Minneapolis, Minn.). The current passing microelectrodes were filled with 0.7 M KCl plus 1.7 M K3-citrate and the voltage recording microelectrodes were filled with 1.0 M KCl. The extracellular solution for most experiments was saline consisting of (mM): NaCl 96, BaCl2 3.5, MgCl2 0.5, CaCl2 0.1, HEPES 5, adjusted to pH 7.5 with NaOH. The extracellular chloride concentration was reduced in some experiments by equimolar replacement of NaCl with the sodium salt of the indicated anion. Experiments were conducted at 21–24° C. Data were acquired using the program Pulse and most analysis was performed with the companion program Pulsefit (Instrutech Instruments, Great Neck, N.Y.) or with Igor Pro (Wavemetrics, Lake Oswego, Oreg.). Data were filtered (fc, −3 db) at 1 kHz, unless otherwise indicated. […] The measurement was made as described in this Example with the two microelectrode voltage clamp technique and the membrane potential was held at 0 mV. Two current recordings are superimposed. The bars at top show the duration of application of glutamate and ivermectin phosphate.

[2] = system: SaGluCl1 (short form “SC”) expressed in CHO cells; assay: Current measurement in CHO cells expressing SaGluCl1; assay type: cell-based, Schistocerca americana
Description: FIG. 4A and FIG. 4B show the SaGluCl1 (short form “SC”) expressed in CHO cells assembles into a homomultimer and is activated by ivermectin (FIG. 4A) and nodulasporic acid (FIG. 4B). 100 nM ivermectin and 1 μM nodulasporic acid were added at 20 seconds and current was measured.
PTet-Splice subclones of SaGluCl1 and SaGluCl2 as disclosed in Example section 1 were transfected into CHO Tet-Off cells (Clontech labs, Inc.) using the Lipofectamine Plus reagent (Life Technologies Inc.). Stable cell lines are selected by growth in the presence of G418. Single G418 resistant clones are isolated and shown to contain the intact SaGluCl gene. Clones containing the SaGluCl cDNAs may be analyzed for expression using immunological techniques, such as immuneprecipitation, Western blot, and immunofluorescence using antibodies specific to the SaGluCl proteins. Antibody may obtained from rabbits innoculated with peptides that are synthesized from the amino acid sequence predicted from the SaGluCl sequences. Expression is also analyzed using patch clamp electrophysiological techniques, an anion flux assay, and ^3H-ivermectin and ^3H-glutamate binding assays.
The expression of recombinant SaGluCl1 and/or SaGluCl2 is achieved by transfection of the full-length SaGluCl cDNA into a mammalian host cell described herein.

| Compound | current elicited on application of the compound [1] | activation of the channel (chloride current) [1] | activation of homomultimer channel, current measured ([2]; 100 nM added at 20 seconds (FIG. 4A)) | activation of homomultimer channel, current measured ([2]; 1 μM added at 20 seconds (FIG. 4B)) |
| --- | --- | --- | --- | --- |
| N[C@@H](CCC(=O)O)C(=O)O [glutamate, L-glutamate] | elicited a rapidly desensitizing current | robust L-glutamate-gated chloride current |  |  |
| ivermectin phosphate | elicited a current of similar amplitude, but the channel stayed open much longer |  |  |  |
| CC[C@H](C)[C@H]1O[C@]2(CC[C@@H]1C)C[C@@H]1C[C@@H](C/C=C(\C)[C@@H](O[C@H]3C[C@H](OC)[C@@H](O[C@H]4C[C@H](OC)[C@@H](O)[C@H](C)O4)[C@H](C)O3)[C@@H](C)/C=C/C=C3\CO[C@@H]4[C@H](O)C(C)=C[C@@H](C(=O)O1)[C@]34O)O2 [ivermectin, 22,23-dihydro-avermectin B1a] |  | activated | activated |  |
| nodulasporic acid |  | activated |  | activated |
